Legend:
Test in all cases: In vitro antibacterial evaluation: minimum inhibitory concentration (MIC), broth dilution method
Assay type in all cases: cell-based
Enterococcus sp. = conditions: for MIC Enterococcus faecalis (ATCC 29212): strain ATCC 29212; for MIC Enterococcus faecalis (GC 2242): strain GC 2242; for MIC Enterococcus faecium (GC 2243): strain GC 2243; for MIC Enterococcus faecalis (GC 2691): strain GC 2691; for MIC Enterococcus faecalis (GC 3059): strain GC 3059; for MIC Enterococcus faecalis (GC 4552): strain GC 4552; for MIC Enterococcus faecalis (GC 4553): strain GC 4553; for MIC Enterococcus faecalis (GC 4554): strain GC 4554; for MIC Enterococcus faecium (GC 4556): strain GC 4556; for MIC Enterococcus faecium (GC 4557): strain GC 4557; for MIC Enterococcus avium (GC 4558): strain GC 4558; for MIC Enterococcus faecalis (GC 6189): strain GC 6189
Protocol: (§1) The minimum inhibitory concentration (MIC), the lowest concentration of the antibiotic which inhibits growth of the test organism, is determined by the broth dilution method using Muller-Hinton II […] (Baltimore Biological Laboratories) following the recommendations of the National Committee for Clinical Laboratory Standards [Methods for dilution antimicrobial susceptibility tests for bacteria that grow aerobically, approved standard M7-A2, National Committee for Clinical Laboratory Standards, Villanova, Pa].
(§2) An inoculum level of 5×10^5 CFU/mL, and a range of antibiotic concentrations (64-0.06 μg/mL) is used. […] The test organisms include a spectrum of Gram-positive bacteria comprised of Staphylococcus sp., Streptococcus sp. and Enterococcus sp. These organisms include recent clinical isolates that are resistant to methicillin, penicillin and/or vancomycin.

Escherichia coli = conditions: for MIC Escherichia coli (ATCC 25922): strain ATCC 25922; for MIC Escherichia coli (GC 4559): strain GC 4559
Protocol: as §1, §2

Staphylococcus sp. = conditions: broth dilution, 18 hours at 35° C.
Protocol: as §1, §2

Streptococcus sp. = conditions: for MIC Streptococcus pneumoniae (ATCC 6301): strain ATCC 6301; for MIC Streptococcus pneumoniae (GC 1894): strain GC 1894; for MIC Streptococcus pyogenes (GC 4563): strain GC 4563; for MIC Streptococcus agalactiae (GC 4564): strain GC 4564; for MIC Streptococcus pneumoniae (GC 4565): strain GC 4565
Protocol: as §1, §2

CCCc1ccc(C2OCC3OC(OC4C(CO)OC(Oc5ccc(CC6NC(=O)C(C(C)c7ccccc7)NC(=O)CNC(=O)C(CO)NC(=O)C(C(O)C7CNC(=N)N7C7OC(CO)C(O)C(O)C7O)NC(=O)C(C(O)C7CNC(=N)N7)NC6=O)cc5)C(O)C4O)C(O)C(O)C3O2)cc1 (stereo not drawn) [Example 140, Cyclo[glycyl-β-methylphenylalanyl-O-[4-O-[4,6-O-(4-propylbenzylidene)hexopyranosyl]-hexopyranosyl]tyrosyl-3-(2-iminoimidazolidin-4-yl)seryl-3-(3-hexopyranosyl-2-iminoimidazolidin-4-yl)serylseryl]]
1 µg/mL: MIC Enterococcus faecium (GC 2243) (Enterococcus sp.) | MIC Enterococcus faecalis (GC 2691) (Enterococcus sp.) | MIC Enterococcus faecalis (GC 3059) (Enterococcus sp.) | MIC Enterococcus faecalis (GC 4552) (Enterococcus sp.) | MIC Enterococcus faecalis (GC 4553) (Enterococcus sp.) | MIC Enterococcus faecalis (GC 4554) (Enterococcus sp.) | MIC Enterococcus faecium (GC 4556) (Enterococcus sp.) | MIC Enterococcus faecium (GC 4557) (Enterococcus sp.) | MIC Enterococcus avium (GC 4558) (Enterococcus sp.) | MIC Enterococcus faecalis (GC 6189) (Enterococcus sp.) | MIC Escherichi coli (GC 4560) (Escherichia coli; strain GC 4560) | MIC Staphylococcus aureus (ATCC 29213) (Staphylococcus sp.; 5×10^5 CFU/mL) | MIC Staphylococcus aureus (GC 1131) (Staphylococcus sp.; 5×10^5 CFU/mL) | MIC Staphylococcus aureus (GC 3051) (Staphylococcus sp.; 5×10^5 CFU/mL) | MIC Staphylococcus aureus (GC 4541) (Staphylococcus sp.; 5×10^5 CFU/mL) | MIC Staphylococcus aureus (GC 4542) (Staphylococcus sp.; 5×10^5 CFU/mL) | MIC Staphylococcus aureus (GC 4544) (Staphylococcus sp.; 5×10^5 CFU/mL) | MIC Staphylococcus aureus-SMITH (GC 4543) (Staphylococcus sp.; 5×10^5 CFU/mL) | MIC Staphylococcus haemolyticus (GC 4546) (Staphylococcus sp.; 5×10^5 CFU/mL) | MIC Staphylococcus aureus (ATCC 29213) (Staphylococcus sp.; strain ATCC 29213) | MIC Staphylococcus aureus (GC 1131) (Staphylococcus sp.; strain GC 1131) | MIC Staphylococcus aureus (GC 3051) (Staphylococcus sp.; strain GC 3051) | MIC Staphylococcus aureus (GC 4541) (Staphylococcus sp.; strain GC 4541) | MIC Staphylococcus aureus (GC 4542) (Staphylococcus sp.; strain GC 4542) | MIC Staphylococcus aureus-SMITH (GC 4543) (Staphylococcus sp.; strain GC 4543) | MIC Staphylococcus aureus (GC 4544) (Staphylococcus sp.; strain GC 4544) | MIC Staphylococcus haemolyticus (GC 4546) (Staphylococcus sp.; strain GC 4546)
<1 µg/mL: MIC Enterococcus faecalis (GC 2242) (Enterococcus sp.)
<0.5 µg/mL: MIC Enterococcus faecalis (ATCC 29212) (Enterococcus sp.) | MIC Coagulase Negative Staphylococcus (GC 4547) (Staphylococcus sp.; 5×10^5 CFU/mL) | MIC Coagulase Negative Staphylococcus (GC 4548) (Staphylococcus sp.; 5×10^5 CFU/mL) | MIC Coagulase Negative Staphylococcus (GC 4549) (Staphylococcus sp.; 5×10^5 CFU/mL) | MIC Coagulase Negative Staphylococcus (GC 4551) (Staphylococcus sp.; 5×10^5 CFU/mL) | MIC Coagulase Negative Staphylococcus (GC 6257) (Staphylococcus sp.; 5×10^5 CFU/mL) | MIC Staphylococcus aureus (GC 3053) (Staphylococcus sp.; 5×10^5 CFU/mL) | MIC Staphylococcus aureus (GC 4545) (Staphylococcus sp.; 5×10^5 CFU/mL) | MIC Staphylococcus aureus (GC 3053) (Staphylococcus sp.; strain GC 3053) | MIC Staphylococcus aureus (GC 4545) (Staphylococcus sp.; strain GC 4545) | MIC Coagulase Negative Staphylococcus (GC 4547) (Staphylococcus sp.; strain GC 4547) | MIC Coagulase Negative Staphylococcus (GC 4548) (Staphylococcus sp.; strain GC 4548) | MIC Coagulase Negative Staphylococcus (GC 4549) (Staphylococcus sp.; strain GC 4549) | MIC Coagulase Negative Staphylococcus (GC 4551) (Staphylococcus sp.; strain GC 4551) | MIC Coagulase Negative Staphylococcus (GC 6257) (Staphylococcus sp.; strain GC 6257) | MIC Streptococcus pneumoniae (ATCC 6301) (Streptococcus sp.) | MIC Streptococcus pneumoniae (GC 1894) (Streptococcus sp.) | MIC Streptococcus pyogenes (GC 4563) (Streptococcus sp.) | MIC Streptococcus agalactiae (GC 4564) (Streptococcus sp.) | MIC Streptococcus pneumoniae (GC 4565) (Streptococcus sp.)
64 µg/mL: MIC Escherichia coli (ATCC 25922) (Escherichia coli) | MIC Escherichia coli (GC 4559) (Escherichia coli)

CSc1ccc(C2OCC3OC(OC4C(CO)OC(Oc5ccc(CC6NC(=O)C(C(C)c7ccccc7)NC(=O)CNC(=O)C(CO)NC(=O)C(C(O)C7CNC(=N)N7C7OC(CO)C(O)C(O)C7O)NC(=O)C(C(O)C7CNC(=N)N7)NC6=O)cc5)C(O)C4O)C(O)C(O)C3O2)cc1 (stereo not drawn) [Example 144]
32 µg/mL: MIC Escherichia coli (ATCC 25922) (Escherichia coli) | MIC Escherichia coli (GC 4559) (Escherichia coli)
0.25 µg/mL: MIC Coagulase Negative Staphylococcus (GC 4548) (Staphylococcus sp.; 5×10^5 CFU/mL) | MIC Coagulase Negative Staphylococcus (GC 6257) (Staphylococcus sp.; 5×10^5 CFU/mL) | MIC Coagulase Negative Staphylococcus (GC 4548) (Staphylococcus sp.; strain GC 4548) | MIC Coagulase Negative Staphylococcus (GC 6257) (Staphylococcus sp.; strain GC 6257)
0.5 µg/mL: MIC Coagulase Negative Staphylococcus (GC 4551) (Staphylococcus sp.; 5×10^5 CFU/mL) | MIC Staphylococcus aureus (GC 4541) (Staphylococcus sp.; 5×10^5 CFU/mL) | MIC Staphylococcus aureus (GC 4542) (Staphylococcus sp.; 5×10^5 CFU/mL) | MIC Staphylococcus aureus (GC 4541) (Staphylococcus sp.; strain GC 4541) | MIC Staphylococcus aureus (GC 4542) (Staphylococcus sp.; strain GC 4542) | MIC Coagulase Negative Staphylococcus (GC 4551) (Staphylococcus sp.; strain GC 4551)
2 µg/mL: MIC Enterococcus faecalis (ATCC 29212) (Enterococcus sp.) | MIC Enterococcus faecalis (GC 2242) (Enterococcus sp.) | MIC Enterococcus faecium (GC 2243) (Enterococcus sp.) | MIC Enterococcus faecalis (GC 2691) (Enterococcus sp.) | MIC Enterococcus faecalis (GC 4552) (Enterococcus sp.) | MIC Enterococcus faecium (GC 4556) (Enterococcus sp.) | MIC Enterococcus faecium (GC 4557) (Enterococcus sp.) | MIC Enterococcus faecalis (GC 6189) (Enterococcus sp.) | MIC Staphylococcus aureus (ATCC 29213) (Staphylococcus sp.; 5×10^5 CFU/mL) | MIC Staphylococcus aureus (ATCC 29213) (Staphylococcus sp.; strain ATCC 29213)
<0.06 µg/mL: MIC Streptococcus pneumoniae (ATCC 6301) (Streptococcus sp.) | MIC Streptococcus pneumoniae (GC 1894) (Streptococcus sp.) | MIC Streptococcus pyogenes (GC 4563) (Streptococcus sp.) | MIC Streptococcus agalactiae (GC 4564) (Streptococcus sp.) | MIC Streptococcus pneumoniae (GC 4565) (Streptococcus sp.)
4 µg/mL: MIC Enterococcus faecalis (GC 3059) (Enterococcus sp.) | MIC Enterococcus faecalis (GC 4553) (Enterococcus sp.) | MIC Enterococcus faecalis (GC 4554) (Enterococcus sp.) | MIC Enterococcus avium (GC 4558) (Enterococcus sp.) | MIC Staphylococcus aureus (GC 4544) (Staphylococcus sp.; 5×10^5 CFU/mL) | MIC Staphylococcus aureus (GC 4544) (Staphylococcus sp.; strain GC 4544)
0.12 µg/mL: MIC Coagulase Negative Staphylococcus (GC 4549) (Staphylococcus sp.; 5×10^5 CFU/mL) | MIC Coagulase Negative Staphylococcus (GC 4549) (Staphylococcus sp.; strain GC 4549)
1 µg/mL: MIC Coagulase Negative Staphylococcus (GC 4547) (Staphylococcus sp.; 5×10^5 CFU/mL) | MIC Staphylococcus aureus (GC 1131) (Staphylococcus sp.; 5×10^5 CFU/mL) | MIC Staphylococcus aureus (GC 3051) (Staphylococcus sp.; 5×10^5 CFU/mL) | MIC Staphylococcus aureus (GC 3053) (Staphylococcus sp.; 5×10^5 CFU/mL) | MIC Staphylococcus aureus (GC 4545) (Staphylococcus sp.; 5×10^5 CFU/mL) | MIC Staphylococcus aureus-SMITH (GC 4543) (Staphylococcus sp.; 5×10^5 CFU/mL) | MIC Staphylococcus haemolyticus (GC 4546) (Staphylococcus sp.; 5×10^5 CFU/mL) | MIC Staphylococcus aureus (GC 1131) (Staphylococcus sp.; strain GC 1131) | MIC Staphylococcus aureus (GC 3051) (Staphylococcus sp.; strain GC 3051) | MIC Staphylococcus aureus (GC 3053) (Staphylococcus sp.; strain GC 3053) | MIC Staphylococcus aureus-SMITH (GC 4543) (Staphylococcus sp.; strain GC 4543) | MIC Staphylococcus aureus (GC 4545) (Staphylococcus sp.; strain GC 4545) | MIC Staphylococcus haemolyticus (GC 4546) (Staphylococcus sp.; strain GC 4546) | MIC Coagulase Negative Staphylococcus (GC 4547) (Staphylococcus sp.; strain GC 4547)

— patent publication US8247211B2, “Glycopeptide antibiotics” (American Cyanamid Company, priority 2001, dated 2012)
